Results as given in ChEMBL document CHEMBL1201862, “PubChem BioAssay data set” (2004).
Calls of active or inactive are those of the source. Cut-off read from the data, not from the text of the source, for most assays here: actives have a measured EC50 and inactives only a lower limit.

What was measured:
Protein RecA = target: T1, Protein RecA (Mycobacterium tuberculosis, UniProt P9WHJ3); assay: Fluorescence Cell-Free Homogeneous Dose Retest to Identify Inhibitors of RecA-Intein Splicing Activity. [Related pubchem assays (depositor defined):AID2097, AID2223, AID489010, AID492950]; format: functional
T1 sequence (P9WHJ3 whole entry): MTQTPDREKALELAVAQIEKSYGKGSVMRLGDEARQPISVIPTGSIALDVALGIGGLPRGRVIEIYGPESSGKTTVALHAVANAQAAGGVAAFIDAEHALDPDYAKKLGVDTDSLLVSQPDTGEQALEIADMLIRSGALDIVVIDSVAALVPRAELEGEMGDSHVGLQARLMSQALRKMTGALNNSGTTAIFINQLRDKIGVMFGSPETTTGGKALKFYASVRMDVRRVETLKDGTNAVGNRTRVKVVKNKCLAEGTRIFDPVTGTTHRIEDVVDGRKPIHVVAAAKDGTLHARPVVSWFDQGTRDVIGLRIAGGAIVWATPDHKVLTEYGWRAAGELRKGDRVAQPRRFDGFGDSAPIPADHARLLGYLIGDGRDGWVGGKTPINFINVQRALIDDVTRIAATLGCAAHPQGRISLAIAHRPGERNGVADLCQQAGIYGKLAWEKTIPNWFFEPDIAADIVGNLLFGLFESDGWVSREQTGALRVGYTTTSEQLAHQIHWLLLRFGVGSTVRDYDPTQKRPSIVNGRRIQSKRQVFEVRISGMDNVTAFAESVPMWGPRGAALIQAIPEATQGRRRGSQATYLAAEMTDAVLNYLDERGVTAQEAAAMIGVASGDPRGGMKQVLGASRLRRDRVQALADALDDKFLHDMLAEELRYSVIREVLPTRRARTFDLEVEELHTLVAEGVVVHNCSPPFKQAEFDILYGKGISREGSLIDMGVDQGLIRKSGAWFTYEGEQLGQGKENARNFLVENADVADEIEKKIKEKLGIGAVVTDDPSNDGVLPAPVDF

[1] = target: T2, Replicative DNA helicase DnaB (Mycobacterium tuberculosis, UniProt P9WMR3); assay: DnaB intein splicing inhibitors, dose response, biochemical, cell-free fluorescence (AID 449749); format: functional
T2 sequence (P9WMR3 whole entry): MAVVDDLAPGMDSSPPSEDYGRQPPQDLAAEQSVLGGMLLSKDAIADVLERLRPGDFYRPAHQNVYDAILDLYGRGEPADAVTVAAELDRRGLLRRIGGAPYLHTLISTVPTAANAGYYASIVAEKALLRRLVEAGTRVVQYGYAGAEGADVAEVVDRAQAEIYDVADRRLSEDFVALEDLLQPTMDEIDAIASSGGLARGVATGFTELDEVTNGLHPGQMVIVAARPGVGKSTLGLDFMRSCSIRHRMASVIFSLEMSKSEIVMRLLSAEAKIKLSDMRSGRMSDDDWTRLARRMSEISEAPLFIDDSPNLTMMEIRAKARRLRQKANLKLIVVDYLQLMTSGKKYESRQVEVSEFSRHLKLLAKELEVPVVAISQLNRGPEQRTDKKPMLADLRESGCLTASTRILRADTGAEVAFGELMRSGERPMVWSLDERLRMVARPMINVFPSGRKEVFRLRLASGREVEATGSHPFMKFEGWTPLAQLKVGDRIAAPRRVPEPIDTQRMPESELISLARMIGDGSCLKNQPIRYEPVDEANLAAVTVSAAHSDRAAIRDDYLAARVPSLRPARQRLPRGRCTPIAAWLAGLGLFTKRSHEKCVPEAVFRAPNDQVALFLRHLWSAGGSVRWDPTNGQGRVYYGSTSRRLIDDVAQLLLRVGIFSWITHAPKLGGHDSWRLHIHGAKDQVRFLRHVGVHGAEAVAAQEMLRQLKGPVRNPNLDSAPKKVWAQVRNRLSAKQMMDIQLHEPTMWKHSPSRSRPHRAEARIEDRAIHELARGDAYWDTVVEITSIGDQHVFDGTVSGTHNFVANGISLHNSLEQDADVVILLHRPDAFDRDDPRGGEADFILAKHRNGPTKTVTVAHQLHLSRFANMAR

[2] = target: T3, Corticotropin-releasing factor receptor 2/Corticotropin-releasing factor-binding protein (Homo sapiens, UniProt P24387+Q13324); assay: Dose Response confirmation of uHTS hits for small molecule antagonists of the CRF-binding protein and CRF-R2 receptor complex.; format: functional; conditions: read-out: IC50_Mean
T3 sequence (Q13324 whole entry): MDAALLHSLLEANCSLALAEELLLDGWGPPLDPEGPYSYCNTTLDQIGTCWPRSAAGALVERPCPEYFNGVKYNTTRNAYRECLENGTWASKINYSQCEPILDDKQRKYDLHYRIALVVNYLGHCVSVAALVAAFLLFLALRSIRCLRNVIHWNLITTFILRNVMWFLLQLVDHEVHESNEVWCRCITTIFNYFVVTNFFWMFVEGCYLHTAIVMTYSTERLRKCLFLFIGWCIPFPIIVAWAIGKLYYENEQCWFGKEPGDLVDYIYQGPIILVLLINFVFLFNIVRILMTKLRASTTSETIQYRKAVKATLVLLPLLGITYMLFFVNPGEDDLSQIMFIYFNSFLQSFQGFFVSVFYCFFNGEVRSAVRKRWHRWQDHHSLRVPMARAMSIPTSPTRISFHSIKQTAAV
T3 sequence (P24387 whole entry): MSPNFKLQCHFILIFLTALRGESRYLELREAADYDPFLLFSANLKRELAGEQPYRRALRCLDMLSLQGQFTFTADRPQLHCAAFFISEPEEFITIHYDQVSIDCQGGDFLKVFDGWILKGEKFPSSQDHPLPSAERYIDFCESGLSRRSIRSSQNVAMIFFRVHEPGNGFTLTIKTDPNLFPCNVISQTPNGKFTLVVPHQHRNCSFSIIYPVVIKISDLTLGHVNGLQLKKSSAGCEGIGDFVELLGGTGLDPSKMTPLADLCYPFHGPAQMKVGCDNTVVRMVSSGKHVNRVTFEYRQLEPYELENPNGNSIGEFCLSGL

[3] = target: T3, Corticotropin-releasing factor receptor 2/Corticotropin-releasing factor-binding protein; assay: activators of CRF receptor 2 with binding protein – uHTS hits, confirmation (AID 602473); format: functional; conditions: read-out: EC50_Mean
Large T antigen = Large T antigen (Simian virus 40, UniProt P03070); format: functional, Betapolyomavirus macacae;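 note: Confirmatory-stage PubChem screen for compounds that inhibit SV40 T antigen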
Chain of Large T antigen (P03070 whole entry): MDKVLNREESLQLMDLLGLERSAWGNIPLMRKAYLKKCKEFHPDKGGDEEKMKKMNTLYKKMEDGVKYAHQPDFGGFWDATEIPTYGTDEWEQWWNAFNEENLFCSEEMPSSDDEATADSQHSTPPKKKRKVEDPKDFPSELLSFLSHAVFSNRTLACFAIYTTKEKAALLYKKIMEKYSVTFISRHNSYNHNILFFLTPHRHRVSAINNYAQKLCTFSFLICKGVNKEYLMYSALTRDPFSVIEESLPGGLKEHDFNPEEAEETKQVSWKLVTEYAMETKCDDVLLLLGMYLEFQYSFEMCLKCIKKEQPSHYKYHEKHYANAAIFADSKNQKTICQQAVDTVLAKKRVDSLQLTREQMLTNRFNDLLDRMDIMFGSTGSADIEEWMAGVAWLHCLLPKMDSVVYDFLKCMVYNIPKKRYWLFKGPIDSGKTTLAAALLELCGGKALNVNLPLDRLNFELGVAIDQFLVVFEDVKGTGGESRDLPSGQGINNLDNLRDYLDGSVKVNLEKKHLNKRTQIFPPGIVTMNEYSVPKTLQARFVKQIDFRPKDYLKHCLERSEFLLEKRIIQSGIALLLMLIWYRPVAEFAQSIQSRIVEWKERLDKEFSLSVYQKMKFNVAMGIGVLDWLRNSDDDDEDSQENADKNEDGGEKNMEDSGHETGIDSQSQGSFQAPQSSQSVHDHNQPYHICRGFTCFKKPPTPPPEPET

[4] = inhibitors of SNCA 5'UTR-driven reporter translation, confirmation, H4 neuroglioma cells, luminescence (AID 1988); format: functional, cell-based
[5] = Luminescence Cell-Based Dose Response HTS to Identify Inhibitors of 5'UTR Stem-Loop Driven Prion Protein mRNA Translation in H4 Neuroglioblastoma Cells. [Related pubchem assays: 1827 (Project Summary), 1813 (Primary HTS)]; format: functional
[6] = inhibitors of firefly luciferase expression or activity, dose response, H4 neuroglioma cells, luminescence (AID 1990); format: functional, cell-based
[7] = HEp-2 cell cytotoxicity, dose response, cytotoxicity control for RSV inhibitor project, HTS (AID 2410); format: functional; conditions: human respiratory syncytial virus

For `COC(=O)c1sc(-c2cccs2)cc1NC(=O)/C=C/C(=O)O`, the EC50 (Protein RecA) was 15.2 µM (active) and the AC50 [1] was 82.9 µM (active).

With `Cc1ccc(S(=O)(=O)N[C@@H](CCCCN)C(=O)CCl)cc1` the EC50 (Protein RecA) was 12.6 µM (active) and the AC50 [1] was > 120 µM (inactive).

In the case of `O=C(Nc1ccccc1Oc1cccnc1)C1CCCN(Cc2ccccc2O)C1` (configuration not stated), the IC50 [2] is reported as > 47.1 µM (inactive) and the EC50 [3] is reported as > 53 µM (inactive).

With `COc1cccc(-n2c(=O)c3ccccc3n3c(S)nnc23)c1` the IC50 (Large T antigen) was 19.1 µM (active).

In the case of `C=C(C)CN1CC[C@]23c4c5ccc(O)c4O[C@H]2c2[nH]c4ccccc4c2C[C@@]3(O)C1C5`, the EC50 [4] is reported as 13.3 µM (active), the EC50 [5] is reported as 109 µM (active) and the EC50 [6] is reported as 13.7 µM (active).

For `COc1cc2c(cc1OC)C1(Nc3c-2c(Cc2ccccc2)nn3-c2ccccc2)C(=O)Nc2ccccc21` (configuration not stated), the EC50 (Protein RecA) was > 380 µM (inactive), the AC50 [1] was > 380 µM (inactive) and the CC50 [7] was > 50 µM (active).

With `Cc1ccn2cc(CSc3ccccc3N)nc2c1` the IC50 [2] was > 47.1 µM (inactive) and the EC50 [3] was > 53 µM (inactive).

With `COc1ccc(N=C(S)NC(NC(=O)CCl)C(Cl)(Cl)Cl)c([N+](=O)[O-])c1` (configuration not stated) the EC50 (Protein RecA) was 3.31 µM (active) and the AC50 [1] was 28.5 µM (active).

In the case of `Cc1nn(-c2ccccc2)c2c1C1(C(=O)N(C(C)C)c3ccccc31)C(C#N)=C(N)O2` (configuration not stated), the EC50 (Protein RecA) is reported as 2.88 µM (active) and the AC50 [1] is reported as 4.5 µM (active).

With `Nc1c(C(=O)NCc2ccc3c(c2)OCO3)nnn1CC(=O)Nc1ccc(Br)cc1` the EC50 [4] was 18.3 µM (active), the EC50 [5] was > 120 µM (not active) and the EC50 [6] was > 120 µM (not active).

In the case of `CCN(CC)S(=O)(=O)c1cc(OC)c(C)cc1C`, the IC50 [2] is reported as > 47.1 µM (inactive) and the EC50 [3] is reported as > 53 µM (inactive).

In the case of `Cc1ccc(NC(=O)c2ccc(S(=O)(=O)N3CCC(C)CC3)cc2)cc1`, the EC50 [4] is reported as 12 µM (active), the EC50 [5] is reported as 38.7 µM (active) and the EC50 [6] is reported as > 120 µM (not active).

With `CC(/C=C1\SC(=S)N(NC(=O)c2cccc(O)c2)C1=O)=C\c1ccccc1` the EC50 (Protein RecA) was 25.2 µM (active) and the AC50 [1] was 15 µM (active).

With `Cc1cc(C)nc(SCc2cc(=O)c(OC(=O)c3ccc(S(=O)(=O)N4CCCC4)cc3)co2)n1` the IC50 (Large T antigen) was 37.3 µM (active).

With `CCOC(=O)c1c(NC(=O)CSc2nnc(-c3c[nH]c4ccccc34)n2CCOC)sc2c1CCCC2` the EC50 (Protein RecA) was > 380 µM (inactive) and the AC50 [1] was 20.2 µM (active).
